According to patent US4064169A, “Bis-(meta-amidinophenoxy)-compounds and pharmacologically acceptable acid addition salts thereof” (Eisai Co., Ltd., priority 1976, dated 1977):
Where a name gives a salt, the structure may show the parent alone.

Experiments:
Assay type in all cases: cell-based
[1] = test system: Klebsiella pneumonial NO-1; experiment: Antibacterial Test (agar dilution M.I.C.); settings: NO1, Table 5, 37° C., 18 hours
Method: (§1) A compound under test was dissolved in aseptic water to prepare a two fold dilution series. Each 1 milliliter of the solution was taken in a petri dish. Nine ml of infusion agar medium (Difco) was added to the solution, thereby preparing the agar plate for test. A pre-culture of each test strain in Tripticase soy broth medium (BBL) at 37° C. for 18 hours was streaked on the above-mentioned agar plate, and the said agar plate was incubated at 37° C. for 18 hours to determine the minimal inhibitory concentration (M.I.C.).

[2] = test system: Staphylococcus aureus 13-6; experiment: Antibacterial Test (agar dilution M.I.C.); settings: 136, Table 5, 37° C., 18 hours
Method: as §1

Escherichia coli E-15 = experiment: Antibacterial Test (agar dilution M.I.C.); settings: E15, Table 5, 37° C., 18 hours
Method: as §1

[3] = test system: Escherichia coli NIHJ JC-1; experiment: Antibacterial Test (agar dilution M.I.C.); settings: NIHJJC1, Table 5, 37° C., 18 hours
Method: as §1

Pseudomonas aeruginosa = experiment: Antibacterial Test (agar dilution M.I.C.); settings: Table 5, 37° C., 18 hours
Method: as §1

[4] = test system: Staphylococcus aureus 209-P JO-1; experiment: Antibacterial Test (agar dilution M.I.C.); settings: Table 5, 37° C., 18 hours
Method: as §1

[5] = test system: Salmonella typhimurium 1406; experiment: Antibacterial Test (agar dilution M.I.C.); settings: Salmonella enterica, Table 5, 37° C., 18 hours
Method: as §1

Proteus mirabilis OM-1 = experiment: Antibacterial Test (agar dilution M.I.C.); settings: OM1, Table 5, 37° C., 18 hours
Method: as §1

[6] = test system: Streptococcus hemolyticus Y-73-5; experiment: Antibacterial Test (agar dilution M.I.C.); settings: Streptococcus pyogenes, Y735; Table 5; 37° C., 18 hours
Method: as §1

[7] = test system: yeast-like fungi such as Candida, Cryptococcus; experiment: Antifungal Test (summary)
Method: (§2) Respective agar plates were prepared by dissolving compounds under test in aseptic water to make a two fold dilution series, taking each 1 milliliter of said diluted solutions and 9 ml of Sabouraud medium into a petri dish, and sufficiently admixing the same.
(§3) On the other hand, an inoculum was prepared by cultivating an examined fungus (microorganism) on the Sabouraud slant medium and suspending two loopful of the incubated fungus in 10 ml of sterilized physiological saline water.
(§4) One loopful of the inoculum was streaked on the above-mentioned agar plate. After the agar plate was incubated at a defined temperature for a predetermined period of time to determine the minimal inhibitory concentration (M.I.C.).

Saccharomyces cerevisiae = experiment: Antifungal Test (agar dilution M.I.C.); settings: Table 1, 27° C.
Method: as §2, §3, §4
(§5) Incubation temperature:
(§6) Incubation time: 3 days (72 hours) and […]

[8] = test system: Candida guilliermondii AHU 3654; experiment: Antifungal Test (agar dilution M.I.C.); settings: Meyerozyma guilliermondii, Table 1, 27° C.
Method: as §2, §3, §4, §5, §6

Candida ulitis AHU 3053 = experiment: Antifungal Test (agar dilution M.I.C.); settings: Table 1, 27° C.
Method: as §2, §3, §4, §5, §6

[9] = test system: Candida tropicalis AHU 3071; experiment: Antifungal Test (agar dilution M.I.C.); settings: Table 1, 27° C.
Method: as §2, §3, §4, §5, §6

Cryptococcus neoformans = experiment: Antifungal Test (agar dilution M.I.C.); settings: Table 1, 27° C.
Method: as §2, §3, §4, §5, §6

[10] = test system: Candida albicans NAKAGAWA IFM 4017; experiment: Antifungal Test (agar dilution M.I.C.); settings: Candida albicans
Method: as §2, §3, §4, §5
(§7) Incubation time: 3 days (72 hours) and
(§8) Incubation time: 3 days (72 hours)
(§9) activity incubation conditions:
(§10) Incubation time 3 days (72 hours)
(§11) Incubation time 7 days (168 hours)
(§12) Incubation time 2 days (48 hours)

[11] = test system: Candida albicans AHU 3656; experiment: Antifungal Test (agar dilution M.I.C.); settings: for MIC: Candida albicans
Method: as §2, §3, §4, §5, §7, §8, §9, §10, §11, §12

[12] = test system: Candida albicans Yu-1200 IFM 4020; experiment: Antifungal Test (agar dilution M.I.C.); settings: Candida albicans
Method: as §2, §3, §4, §5, §7, §8, §9, §10, §11, §12

fungi of Table 4 = experiment: Antifungal test when a serum is added (summary); settings: 10% and 30% by volume horse serum
Method: Minimal inhibitory concentration (M.I.C.) was determined by preparing the agar plate medium in the same manner of the preceding pharmacological test 1, except for the addition of the horse serum. The concentration of the component in the medium was finally corrected, so that it may amount to the concentration of the component when the horse serum was not added.

**Q.** Which MIC [1] does the source give for N=C(N)c1cccc(OCC2CCC(COc3cccc(C(=N)N)c3)CC2)c1 (centres unmarked) [Compound A, 1,4-Bis-(m,m'-amidinophenoxymethyl)-cyclohexane-dihydrochloride] here?
**A.** Its MIC is 200 µg/mL.

**Q.** And the MIC [2]?
**A.** The MIC was 6.25 µg/mL.

**Q.** What about the MIC (Escherichia coli E-15) of the same molecule?
**A.** Its MIC is 200 µg/mL.

**Q.** And the MIC [3]?
**A.** Its MIC is 100 µg/mL.

**Q.** And the MIC (Pseudomonas aeruginosa)?
**A.** The MIC was greater than 200 µg/mL.

**Q.** What about the MIC [4] of the same molecule?
**A.** Its MIC is 3.13 µg/mL.

**Q.** And the MIC [5]?
**A.** Its MIC is 200 µg/mL.

**Q.** And the MIC (Proteus mirabilis OM-1)?
**A.** The MIC was greater than 200 µg/mL.

**Q.** What about the MIC [6] of the same molecule?
**A.** Its MIC is 6.25 µg/mL.

**Q.** And the antifungal activity [7]?
**A.** The antifungal activity was “excellent antifungal activity”.

**Q.** What about the “influence of incubation temperature on antifungal activity” value ([7]; 27° C. and 37° C.) of the same molecule?
**A.** Its value is “not influenced by the incubation temperature”.

**Q.** And the MIC (Saccharomyces cerevisiae; 72 h, 3 days incubation)?
**A.** Its MIC is less than 1.56 µg/mL.

**Q.** And the MIC (Saccharomyces cerevisiae; 168 h, 7 days incubation)?
**A.** Its MIC is less than 1.56 µg/mL.

**Q.** And the MIC ([8]; AHU3654, 72 h, 3 days incubation)?
**A.** The MIC was 25 µg/mL.

**Q.** What about the MIC ([8]; AHU3654, 168 h, 7 days incubation) of the same molecule?
**A.** Its MIC is 25 µg/mL.

**Q.** And the MIC (Candida ulitis AHU 3053; AHU3053, 72 h, 3 days incubation)?
**A.** The MIC was 3.13 µg/mL.

**Q.** What about the MIC (Candida ulitis AHU 3053; AHU3053, 168 h, 7 days incubation) of the same molecule?
**A.** The MIC was 3.13 µg/mL.

**Q.** What about the MIC ([9]; AHU3071, 72 h, 3 days incubation) of the same molecule?
**A.** The MIC was 3.13 µg/mL.

**Q.** What about the MIC ([9]; AHU3071, 168 h, 7 days incubation) of the same molecule?
**A.** Its MIC is 3.13 µg/mL.

**Q.** What about the MIC (Cryptococcus neoformans; 72 h, 3 days incubation) of the same molecule?
**A.** The MIC was 3.13 µg/mL.

**Q.** And the MIC (Cryptococcus neoformans; 168 h, 7 days incubation)?
**A.** Its MIC is 3.13 µg/mL.

**Q.** What about the MIC ([10]; 48 h, Table 3, 37° C., 2 days) of the same molecule?
**A.** Its MIC is 0.8 µg/mL.

**Q.** And the MIC ([10]; 72 h, Table 1, 27° C., 3 days incubation)?
**A.** The MIC was 3.13 µg/mL.

**Q.** And the MIC ([10]; 72 h, Table 2, 37° C., 3 days (72 hours))?
**A.** The MIC was 1.56 µg/mL.

**Q.** And the MIC ([10]; 72 h, Table 3, 27° C., 3 days)?
**A.** The MIC was 3.13 µg/mL.

**Q.** What about the MIC ([10]; 72 h, Table 3, 37° C., 3 days) of the same molecule?
**A.** Its MIC is 1.56 µg/mL.

**Q.** What about the MIC ([10]; 168 h, Table 1, 27° C., 7 days incubation) of the same molecule?
**A.** The MIC was 3.13 µg/mL.

**Q.** And the MIC ([10]; 168 h, Table 3, 27° C., 7 days)?
**A.** Its MIC is 3.13 µg/mL.

**Q.** What about the MIC ([11]; AHU3656, 48 h, Table 3, 37° C., 2 days) of the same molecule?
**A.** The MIC was 3.13 µg/mL.

**Q.** What about the MIC ([11]; AHU3656, 72 h, Table 3, 27° C., 3 days) of the same molecule?
**A.** Its MIC is 3.13 µg/mL.

**Q.** And the MIC ([11]; AHU3656, 168 h, Table 3, 27° C., 7 days)?
**A.** Its MIC is 6.25 µg/mL.

**Q.** And the M.I.C. ([11]; Table 1, 27° C., 3 days incubation)?
**A.** Its M.I.C. is 3.13 µg/mL.

**Q.** And the M.I.C. ([11]; Table 1, 27° C., 7 days incubation)?
**A.** The M.I.C. was 6.25 µg/mL.

**Q.** And the M.I.C. ([11]; Table 2, 37° C., 3 days (72 hours))?
**A.** The M.I.C. was 3.13 µg/mL.

**Q.** What about the M.I.C. ([11]; Table 3, 37° C., 3 days) of the same molecule?
**A.** The M.I.C. was 3.13 µg/mL.

**Q.** And the MIC ([12]; YU1200IFM4020, 48 h, Table 3, 37° C., 2 days)?
**A.** The MIC was 0.8 µg/mL.

**Q.** And the MIC ([12]; YU1200IFM4020, 72 h, Table 1, 27° C., 3 days incubation)?
**A.** Its MIC is less than 1.56 µg/mL.

**Q.** And the MIC ([12]; YU1200IFM4020, 72 h, Table 2, 37° C., 3 days (72 hours))?
**A.** The MIC was 0.8 µg/mL.

**Q.** And the MIC ([12]; YU1200IFM4020, 72 h, Table 3, 27° C., 3 days)?
**A.** Its MIC is 1.56 µg/mL.

**Q.** What about the MIC ([12]; YU1200IFM4020, 72 h, Table 3, 37° C., 3 days) of the same molecule?
**A.** Its MIC is 0.8 µg/mL.

**Q.** What about the MIC ([12]; YU1200IFM4020, 168 h, Table 1, 27° C., 7 days incubation) of the same molecule?
**A.** Its MIC is 3.13 µg/mL.

**Q.** And the MIC ([12]; YU1200IFM4020, 168 h, Table 3, 27° C., 7 days)?
**A.** The MIC was 3.13 µg/mL.

**Q.** And the “antifungal activity with serum compared with no serum” value (fungi of Table 4)?
**A.** The value was “nearly same as that when the horse serum was not added”.

**Q.** And the “difference of antifungal activity with vs without horse serum” value (fungi of Table 4)?
**A.** The value was 1 - 2 dilution step(s).
